# According to patent US20080274976A1 (priority 2002, published 2008):
# Where a SMILES comes first, the peptide text is derived from it. Bridges are numbered along the chain shown (N, C = ends). [ ]: non-standard residue; d: D form. Hyp = O=C(O)[C@@H]1C[C@@H](O)CN1
# Columns and labels:
# [1] = target: Shaker-Δ6-46 (Drosophila melanogaster, UniProt P08510, DEL6-46); format: cell-based
# [2] = tested on: TSha1 K^+ channel; format: cell-based, trout
# Chain of Shaker-Δ6-46 (P08510 1-655 with tags or gaps DEL6-46): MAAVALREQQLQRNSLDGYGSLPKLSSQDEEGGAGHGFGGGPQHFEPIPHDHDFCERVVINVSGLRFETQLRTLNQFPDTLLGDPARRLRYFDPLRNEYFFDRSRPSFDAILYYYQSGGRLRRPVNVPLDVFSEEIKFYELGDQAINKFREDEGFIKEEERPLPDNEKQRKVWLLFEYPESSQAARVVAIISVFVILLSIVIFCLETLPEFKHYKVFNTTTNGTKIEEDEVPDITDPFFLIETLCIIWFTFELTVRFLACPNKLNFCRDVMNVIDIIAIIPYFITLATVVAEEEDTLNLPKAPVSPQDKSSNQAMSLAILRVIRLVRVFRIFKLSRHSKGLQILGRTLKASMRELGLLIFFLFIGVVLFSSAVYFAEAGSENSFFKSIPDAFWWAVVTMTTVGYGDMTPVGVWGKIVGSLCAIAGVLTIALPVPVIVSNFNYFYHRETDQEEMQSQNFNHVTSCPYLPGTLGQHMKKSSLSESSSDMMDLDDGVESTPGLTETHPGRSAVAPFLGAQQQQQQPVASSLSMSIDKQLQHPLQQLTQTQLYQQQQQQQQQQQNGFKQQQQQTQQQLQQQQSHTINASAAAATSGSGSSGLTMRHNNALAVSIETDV
compound,measurement,setting,value
"CC(C)C[C@@H]1NC(=O)[C@H](CO)NC(=O)[C@@H]2CSSC[C@@H]3NC(=O)[C@@H]4C[C@@H](O)CN4C(=O)[C@H](CC(N)=O)NC(=O)[C@H](CCCNC(=N)N)NC(=O)[C@H](CCCCN)NC(=O)[C@H](CSSC[C@H](NC(=O)[C@H](CO)NC(=O)[C@@H]4C[C@@H](O)CN4C(=O)[C@@H](N)CC(C)C)C(=O)N2)NC(=O)[C@H](C)NC(=O)[C@@H]2C[C@@H](O)CN2C(=O)[C@H](C(C)C)NC(=O)[C@@H]2C[C@@H](O)CN2C(=O)[C@H](CSSC[C@@H](C(=O)N[C@H](C(N)=O)[C@@H](C)O)NC3=O)NC(=O)[C@H](CC(C)C)NC(=O)[C@H](CCCNC(=N)N)NC(=O)[C@H](CC(C)C)NC(=O)[C@H](CC(N)=O)NC1=O [κM-conotoxin RIIIK, LOSCCSLNLRLCOVOACKRNOCCT-NH2] (H-L[Hyp]SCCSLNLRLC[Hyp]V[Hyp]ACKRN[Hyp]CCT-NH2; disulfide 4-17, 5-22, 12-23)","affinity for the open state (0 mV), times lower compared to the closed state",[1],about three to four
same,k^(C)off,[1],6.0 ± 3.0 s⁻¹
same,k^(C)on,[1],4e+06 ± 700000 M⁻¹ s⁻¹
same,k^(O)off,[1],90 ± 30 s⁻¹
same,k^(O)on,[1],3e+07 ± 7e+06 M⁻¹ s⁻¹
same,"k^(C)on, times higher than in the Shaker-Δ6-46 channel",[2],about four
same,"k^(O)off for Tsha1, times smaller than in the Shaker-Δ6-46 channel",[2],about 20 times
same,"k^(O)on in Tsha1, times higher than in the Shaker-Δ6-46 channel",[2],three
